In this test the test system is passive cutaneous anaphylactic (PCA) reaction. Briefly: Passive cutaneous anaphylactic (PCA) reaction, reagin-allergen combination, in rats. The format is in vivo. The note with it: Rattus norvegicus; for ED100: intravenous, just before injection of allergen, read-out: ED100 (intravenous dose which produces 100% inhibition of the PCA reaction); for inhibition in vivo at 100 mg/kg: oral dose of 100 mg/kg; for inhibition in vivo at 100 mg/kg / ED50: thirty minutes before intravenous allergen; for ED50: oral, read-out: ED50 (oral dose which produces 50% inhibition of the PCA reaction). The text has this: In pharmacological tests the benzamide derivatives of general formula I suppress the passive cutaneous anaphylactic (PCA) reaction resulting from combination of tissue-fixed reaginic antibodies with the appropriate antigenic material (termed reagin-allergen combination) and carried out in an essentially similar manner to that described by Ogilvie [Nature (Lond.), (1964), 204, 91-92; Immunology, (1967), 12, 112-131]. In the method used to test these compounds sera were obtained from rats which had been infected with larvae of the nematode parasite Nippostrongylus brasiliensis; as a result of the parasitic infestation reaginic antibodies are elaborated in the host mammal and are found in sera removed from such animals. Other, non-infected, rats received intradermal injections of appropriate dilutions of such sera and were then given the allergenic material along with Evans' blue dye intravenously forty-eight hours later.
The allergenic material consisted of supernatant fluid after centrifugation of homogenates of adult Nippostrongylus brasiliensis worms which had been macerated in Tyrode's solution. The sites of PCA reactions were visualised by the effusion of Evan's blue dye from the circulation into those areas as a result of increased capillary permeability caused by the release of biologically-active substances from cells where reagin-allergen combination had occurred. The new compounds when given intravenously to the rats just before injection of allergen, or administered orally thirty minutes before intravenous injection of allergen, were able to prevent the development of the PCA reaction, as shown below in Table I, Table II and Table III.

Each structure is given as a SMILES string.

Consider `CSc1ccc(O)c(C(=O)Nc2nnn[nH]2)c1` [BF, 2-hydroxy-5-methylthio-N-(tetrazol-5-yl)benzamide], for which the ED100 stood at 0.5 mg/kg.
A word on the inhibition in vivo: it is the relative decrease from the control value, in per cent. Regarding `CS(=O)(=O)c1cccc(C(=O)Nc2nnn[nH]2)c1O` [BJ, 2-hydroxy-3-methylsulphonyl-N-(tetrazol-5-yl)benzamide], the ED100 was 20 mg/kg and the inhibition in vivo at 100 mg/kg turned out to be 64%.
In the case of `O=C(Nc1nnn[nH]1)c1cc(O)ccc1O` [AF, 2,5-dihydroxy-N-(tetrazol-5-yl)benzamide], the ED100 was found to be 1 mg/kg.
On to `Nc1ccc(O)c(C(=O)Nc2nnn[nH]2)c1` [Compound BS, 5-amino-2-hydroxy-N-(tetrazol-5-yl)benzamide], for which the ED100 amounted to 5 mg/kg and the inhibition in vivo at 100 mg/kg is 35%.
Usually ED50 stands for the dose that gives a 50% effect, or the effect in half of the subjects. `CN(C)c1cccc(C(=O)Nc2nnn[nH]2)c1O` [CP, 2-hydroxy-3-dimethylamino-N-(tetrazol-5-yl)benzamide]: the ED100 is 2 mg/kg, the inhibition in vivo at 100 mg/kg was 68% and the ED50 is 26 mg/kg.
On to `CS(=O)(=O)c1ccc(O)c(C(=O)Nc2nnn[nH]2)c1` [BO, 2-hydroxy-5-methylsulphonyl-N-(tetrazol-5-yl)benzamide], for which the ED100 was found to be 5 mg/kg and the inhibition in vivo at 100 mg/kg was 63%.
Consider `O=C(Nc1ccc(C(=O)Nc2nnn[nH]2)c(O)c1)OCc1ccccc1` [BR, 4-benzyloxycarbonylamino-2-hydroxy-N-(tetrazol-5-yl)benzamide], for which the ED100 came to 0.5 mg/kg.
For `CC(C)(C)NC(=O)c1cccc(C(=O)Nc2nnn[nH]2)c1O` [CO, 3-tert-butylcarbamoyl-2-hydroxy-N-(tetrazol-5-yl)benzamide], the ED100 amounted to 5 mg/kg and the inhibition in vivo at 100 mg/kg worked out at 26%.
As for `O=C(Nc1ccc(O)c(C(=O)Nc2nnn[nH]2)c1)OCc1ccccc1` [BQ, 5-benzyloxycarbonylamino-2-hydroxy-N-(tetrazol-5-yl)benzamide], the ED100 is 5 mg/kg.
On to `O=C(Nc1nnn[nH]1)c1cc(Br)cc(Br)c1O` [AY, 3,5-dibromo-2-hydroxy-N-(tetrazol-5-yl)benzamide], for which the ED100 came out at 5 mg/kg and the inhibition in vivo at 100 mg/kg was 65%.
The corresponding values for `CS(=O)(=O)c1cc(C(=O)Nc2nnn[nH]2)c(O)c(S(C)(=O)=O)c1` [BK, 2-hydroxy-3,5-bis(methylsulphonyl)-N-(tetrazol-5-yl)benzamide] are 10 mg/kg and 29%.
In the same order, the values of `O=C(Nc1nnn[nH]1)c1ccc([N+](=O)[O-])cc1O` [Compound AA, 2-hydroxy-4-nitro-N-(tetrazol-5-yl)benzamide] are 10 mg/kg and 18%.
As for `O=C(O)c1cccc(C(=O)Nc2nn[nH]n2)c1O` [CN, 3-N-(tetrazol-5-yl)carbamoylsalicylic acid], the ED100 was found to be 1 mg/kg, the inhibition in vivo at 100 mg/kg turned out to be 43% and the ED50 is 20 mg/kg.
In the same order, the values of `O=C(Nc1nnn[nH]1)c1cccc(Cl)c1O` [AM, 3-chloro-2-hydroxy-N-(tetrazol-5-yl)benzamide] are 5 mg/kg, 82% and 85 mg/kg.
In the same order, the values of `CC(=O)c1cc(F)cc(C(=O)Nc2nnn[nH]2)c1O` [CC, 3-acetyl-5-fluoro-2-hydroxy-N-(tetrazol-5-yl)benzamide] are 0.2 mg/kg, 62% and 1.9 mg/kg.
Regarding `Cc1cc(C#N)c(O)c(C(=O)Nc2nnn[nH]2)c1` [Compound CL, 3-cyano-2-hydroxy-5-methyl-N-(tetrazol-5-yl)benzamide], the ED100 came out at 2 mg/kg and the inhibition in vivo at 100 mg/kg came out at 26%.
On to `O=C(Nc1nnn[nH]1)c1cc(Br)ccc1O` [BM, 5-bromo-2-hydroxy-N-(tetrazol-5-yl)benzamide], for which the ED100 was determined as 5 mg/kg, the inhibition in vivo at 100 mg/kg came to 46% and the ED50 was 65 mg/kg.
For the molecule `CC(=O)Nc1ccc(O)c(C(=O)Nc2nnn[nH]2)c1` [AZ, 5-acetylamino-2-hydroxy-N-(tetrazol-5-yl)benzamide], the ED100 turned out to be 10 mg/kg.

The values above are taken from patent publication US4146631A, “Benzamide derivatives” (May & Baker Limited, priority 1976, dated 1979).
